Test system: 422866-222-R5-J1-PDC complex spheroids viability
Test: Anticancer human tumor 422866-222-R5-J1-PDC patient-derived pancreatic adenocarcinoma cell line growth inhibition [RAS]
Settings: for IC50: curve of first compound; for viability, T/C: stronger effect = lower value; active = viability on the fitted dose curve at most 10% of control; inactive = the rest
Summary of the method: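 Multi-cell-type spheroids: tumor cells plus HUVEC endothelial cells and mesenchymal stem cells. RAS-pathway inhibitors were combined with targeted agents, each dosed in half-log steps down from clinical Cmax, or from 10 microM when Cmax was unknown.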
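Note: spheroids exposed to compounds for 7 days.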
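Throughout, for viability, T/C: 100% = DMSO vehicle control viability.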

C[C@@H](NC(=O)c1ncnc(N)c1Cl)c1ncc(C(=O)Nc2cc(C(F)(F)F)c(Cl)cn2)s1 + CCn1c(-c2cccnc2C(C)OC)c2c3cc(ccc31)N1CCOC(CC(NC(=O)C(C(C)C)N(C)C(=O)C3(F)CCN(C(=O)C#CC(C)(C)N(C)C)CC3)C(=O)N3CCCC(N3)C(=O)OCC(C)(C)C2)C1
< 31.6 nM: IC50 (second compound 0.000949 µM) | IC50 (second compound 0.003 µM) | IC50 (second compound 0.00949 µM) | IC50 (second compound 0.03 µM) | IC50 (second compound 0.0949 µM) | IC50 (second compound 0.3 µM)
inactive: viability, T/C (second compound 0.000949 µM, first compound 0.0316 µM) 32% | viability, T/C (second compound 0.000949 µM, first compound 0.1 µM) 30.9% | viability, T/C (second compound 0.000949 µM, first compound 0.316 µM) 30.3% | viability, T/C (second compound 0.000949 µM, first compound 1 µM) 32.5% | viability, T/C (second compound 0.000949 µM, first compound 3.16 µM) 29% | viability, T/C (second compound 0.000949 µM, first compound 10 µM) 37% | viability, T/C (second compound 0.003 µM, first compound 0.0316 µM) 25.3% | viability, T/C (second compound 0.003 µM, first compound 0.1 µM) 24% | viability, T/C (second compound 0.003 µM, first compound 0.316 µM) 28.5% | viability, T/C (second compound 0.003 µM, first compound 1 µM) 25.6% | viability, T/C (second compound 0.003 µM, first compound 3.16 µM) 25.5% | viability, T/C (second compound 0.003 µM, first compound 10 µM) 26.3% | viability, T/C (second compound 0.00949 µM, first compound 0.0316 µM) 26.9% | viability, T/C (second compound 0.00949 µM, first compound 0.1 µM) 23.2% | viability, T/C (second compound 0.00949 µM, first compound 0.316 µM) 23.7% | viability, T/C (second compound 0.00949 µM, first compound 1 µM) 22.2% | viability, T/C (second compound 0.00949 µM, first compound 3.16 µM) 24.6% | viability, T/C (second compound 0.00949 µM, first compound 10 µM) 23.6% | viability, T/C (second compound 0.03 µM, first compound 0.0316 µM) 24.7% | viability, T/C (second compound 0.03 µM, first compound 0.1 µM) 19.7% | viability, T/C (second compound 0.03 µM, first compound 0.316 µM) 22.7% | viability, T/C (second compound 0.03 µM, first compound 1 µM) 21.7% | viability, T/C (second compound 0.03 µM, first compound 3.16 µM) 25.2% | viability, T/C (second compound 0.03 µM, first compound 10 µM) 21% | viability, T/C (second compound 0.0949 µM, first compound 0.0316 µM) 17.8% | viability, T/C (second compound 0.0949 µM, first compound 0.1 µM) 18.4% | viability, T/C (second compound 0.0949 µM, first compound 0.316 µM) 21.8% | viability, T/C (second compound 0.0949 µM, first compound 1 µM) 20.2% | viability, T/C (second compound 0.0949 µM, first compound 3.16 µM) 20.7% | viability, T/C (second compound 0.0949 µM, first compound 10 µM) 21.7% | viability, T/C (second compound 0.3 µM, first compound 0.0316 µM) 18% | viability, T/C (second compound 0.3 µM, first compound 0.1 µM) 17.8% | viability, T/C (second compound 0.3 µM, first compound 0.316 µM) 21.5% | viability, T/C (second compound 0.3 µM, first compound 1 µM) 20% | viability, T/C (second compound 0.3 µM, first compound 3.16 µM) 21.7% | viability, T/C (second compound 0.3 µM, first compound 10 µM) 26.1%

NC1c2ccccc2OC12CCN(c1cnc3c(N4CCCc5ncccc54)n[nH]c3n1)CC2 (centres undefined) + C=CC(=O)N1CCN(c2nc(OCC3CCCN3C)nc3c(F)c(-c4nc(N)cc(C)c4C(F)(F)F)c(Cl)cc23)C(C)C1
< 31.6 nM: IC50 (second compound 0.00316 µM) | IC50 (second compound 0.01 µM) | IC50 (second compound 0.0316 µM) | IC50 (second compound 0.1 µM) | IC50 (second compound 0.316 µM) | IC50 (second compound 1 µM)
inactive: viability, T/C (second compound 0.00316 µM, first compound 0.0316 µM) 21.3% | viability, T/C (second compound 0.00316 µM, first compound 0.1 µM) 17.9% | viability, T/C (second compound 0.00316 µM, first compound 0.316 µM) 18.1% | viability, T/C (second compound 0.00316 µM, first compound 1 µM) 16.3% | viability, T/C (second compound 0.00316 µM, first compound 3.16 µM) 13.4% | viability, T/C (second compound 0.00316 µM, first compound 10 µM) 16.3% | viability, T/C (second compound 0.01 µM, first compound 0.0316 µM) 20.1% | viability, T/C (second compound 0.01 µM, first compound 0.1 µM) 17.6% | viability, T/C (second compound 0.01 µM, first compound 0.316 µM) 13.2% | viability, T/C (second compound 0.01 µM, first compound 1 µM) 16.3% | viability, T/C (second compound 0.01 µM, first compound 3.16 µM) 15.4% | viability, T/C (second compound 0.01 µM, first compound 10 µM) 16.6% | viability, T/C (second compound 0.0316 µM, first compound 0.0316 µM) 20.4% | viability, T/C (second compound 0.0316 µM, first compound 0.1 µM) 18.5% | viability, T/C (second compound 0.0316 µM, first compound 0.316 µM) 13.9% | viability, T/C (second compound 0.0316 µM, first compound 1 µM) 14.5% | viability, T/C (second compound 0.0316 µM, first compound 3.16 µM) 15.9% | viability, T/C (second compound 0.0316 µM, first compound 10 µM) 14.8% | viability, T/C (second compound 0.1 µM, first compound 0.0316 µM) 18.3% | viability, T/C (second compound 0.1 µM, first compound 0.1 µM) 15.1% | viability, T/C (second compound 0.1 µM, first compound 0.316 µM) 15.3% | viability, T/C (second compound 0.1 µM, first compound 1 µM) 12.8% | viability, T/C (second compound 0.1 µM, first compound 3.16 µM) 16.3% | viability, T/C (second compound 0.1 µM, first compound 10 µM) 14.2% | viability, T/C (second compound 0.316 µM, first compound 0.0316 µM) 18.4% | viability, T/C (second compound 0.316 µM, first compound 0.1 µM) 16.6% | viability, T/C (second compound 0.316 µM, first compound 0.316 µM) 14.5% | viability, T/C (second compound 0.316 µM, first compound 1 µM) 13.6% | viability, T/C (second compound 0.316 µM, first compound 3.16 µM) 14.2% | viability, T/C (second compound 0.316 µM, first compound 10 µM) 12.9% | viability, T/C (second compound 1 µM, first compound 0.0316 µM) 18.7% | viability, T/C (second compound 1 µM, first compound 0.1 µM) 14.1% | viability, T/C (second compound 1 µM, first compound 0.316 µM) 16.4% | viability, T/C (second compound 1 µM, first compound 1 µM) 15.8% | viability, T/C (second compound 1 µM, first compound 3.16 µM) 14.9% | viability, T/C (second compound 1 µM, first compound 10 µM) 15.9%
